What was measured:
[1] = tested on: Plasmodium falciparum; experiment: Antiplasmodial activity against asexual blood-stage (ABS) ATV-resistant clinical isolate Plasmodium falciparum Tm90-C2B infected in human erythrocytes assessed as reduction in fluorescence measured after 72 hrs by Malaria SYBR Green I-based Fluorescence (MSF) assay; format: functional, organism-based; details: Erythrocyte
[2] = human, microsomes, 1 h
[3] = tested on: Hepatocyte; experiment: Cytotoxicity against Macaca mulatta hepatocytes assessed as cell viability measured after 48 hrs by MTT assay; format: toxicity, cell-based; details: rhesus monkey, 48 h
[4] = mouse, microsomes, 1 h
[5] = tested on: Plasmodium cynomolgi; experiment: (§1) Antiplasmodial activity against schizont Plasmodium cynomolgi B strain infected in Macaca mulatta hepatocytes incubated with sporozoite containing salivary gland homogenate obtained from dissected Anopheles dirus mosquitoes (infected with Plasmodium cynomolgi B strain) treatment started on day 4 post infection and continued daily for 4 days into fresh changed media until day 8 assessed as Liver stage (LS) activity by measuring prophylactic mode by immunofluorescent staining analysis; format: functional, organism-based; details: Hepatocyte
[6] = tested on: Plasmodium falciparum; experiment: Antiplasmodial activity against asexual blood-stage (ABS) CQ-sensitive Plasmodium falciparum D6 infected in human erythrocytes assessed as reduction in fluorescence measured after 72 hrs by Malaria SYBR Green I-based Fluorescence (MSF) assay; format: functional, organism-based; details: D6, Erythrocyte
[7] = tested on: Plasmodium cynomolgi; experiment: as §1, with “hypnozoite” for “schizont”; format: functional, organism-based; details: Hepatocyte
[8] = tested on: HepG2; experiment: Cytotoxicity against human HepG2 cells assessed as cell viability measured after 48 hrs by MTT assay; format: functional, cell-based; details: HepG2, 48 h
[9] = as §1, with “Selectivity index, ratio of CC50 for Macaca mulatta hepatocytes to IC50 for antiplasmodial” for “Antiplasmodial”, “radical cure” for “prophylactic”; format: toxicity, cell-based; details: rhesus monkey, read-out: Selectivity Index
[10] = as §1, with “Selectivity index, ratio of CC50 for Macaca mulatta hepatocytes to IC50 for antiplasmodial” for “Antiplasmodial”, “hypnozoite” for “schizont”; format: toxicity, cell-based; details: rhesus monkey, read-out: Selectivity Index
[11] = as §1, with “Selectivity index, ratio of CC50 for Macaca mulatta hepatocytes to IC50 for antiplasmodial” for “Antiplasmodial”; format: toxicity, cell-based; details: rhesus monkey, read-out: Selectivity Index
[12] = tested on: Plasmodium cynomolgi; experiment: as §1, with “hypnozoite” for “schizont”, “radical cure” for “prophylactic”; format: functional, organism-based; details: Hepatocyte
[13] = tested on: Plasmodium cynomolgi; experiment: as §1, with “radical cure” for “prophylactic”; format: functional, organism-based; details: Hepatocyte
[14] = tested on: Plasmodium falciparum; experiment: Antiplasmodial activity against asexual blood-stage (ABS) MDR Plasmodium falciparum Dd2 infected in human erythrocytes assessed as reduction in fluorescence measured after 72 hrs by Malaria SYBR Green I-based Fluorescence (MSF) assay; format: functional, organism-based; details: Dd2, Erythrocyte
[15] = as §1, with “Selectivity index, ratio of CC50 for Macaca mulatta hepatocytes to IC50 for antiplasmodial” for “Antiplasmodial”, “hypnozoite” for “schizont”, “radical cure” for “prophylactic”; format: toxicity, cell-based; details: rhesus monkey, read-out: Selectivity Index
[16] = Toxicity in CF1 mouse infected with asexual blood-stage (ABS) Plasmodium yoelii MRA-428 assessed as ruffled hair at 0.3 to 30 mg/kg, po treated 24 hrs post infection measured after 4 days; format: organism-based; details: in vivo, 96 h, dose 0.3-30 mg/kg, time 4 day
[17] = Toxicity in CF1 mouse infected with asexual blood-stage (ABS) Plasmodium yoelii MRA-428 assessed as lethargy at 0.3 to 30 mg/kg, po treated 24 hrs post infection measured after 4 days; format: organism-based; details: in vivo, 96 h, dose 0.3-30 mg/kg, time 4 day
[18] = Toxicity in CF1 mouse infected with asexual blood-stage (ABS) Plasmodium yoelii MRA-428 assessed as hunching at 0.3 to 30 mg/kg, po treated 24 hrs post infection measured after 4 days; format: organism-based; details: in vivo, 96 h, dose 0.3-30 mg/kg, time 4 day
[19] = Toxicity in CF1 mouse infected with asexual blood-stage (ABS) Plasmodium yoelii MRA-428 assessed as weight loss at 0.3 to 30 mg/kg, po treated 24 hrs post infection measured after 4 days; format: organism-based; details: in vivo, 96 h, dose 0.3-30 mg/kg, time 4 day
[20] = Toxicity in CF1 mouse infected with asexual blood-stage (ABS) Plasmodium yoelii MRA-428 assessed as hyperactivity at 0.3 to 30 mg/kg, po treated 24 hrs post infection measured after 4 days; format: organism-based; details: in vivo, 96 h, dose 0.3-30 mg/kg, time 4 day

| Compound | IC50 [1] [µM] | t1/2 [2] [h] | CC50 [3] [µM] | CLH [4] [µL/min/mg] | IC50 [5] [µM] | IC50 [6] [nM] | IC50 [7] [µM] | IC50 [8] [µM] | selectivity ratio at 96 h [9] | selectivity ratio at 96 h [10] | selectivity ratio at 96 h [11] | IC50 [12] [µM] | IC50 [13] [µM] | IC50 [14] [nM] | selectivity ratio at 96 h [15] | Activity [16] | Activity [17] | Activity [18] | Activity [19] | Activity [20] |
| --- | --- | --- | --- | --- | --- | --- | --- | --- | --- | --- | --- | --- | --- | --- | --- | --- | --- | --- | --- | --- |
| O=c1c2ccc(OC3CCNCC3)cc2[nH]c2cc(F)cc(Cl)c12 | > 2.5 | > 1 | > 20 | 72.1 | 4.06 | 27.2 | 5.95 | 48.9 | > 1.45 | > 3.36 | > 4.92 | > 20 | 13.8 | 31.4 |  |  |  |  |  |  |
| CN1CCC(Oc2ccc3c(=O)c4c(F)cc(Cl)cc4[nH]c3c2)CC1 | > 2.5 |  | > 20 | 209.5 | 0.54 | 11.2 | 5.7 | 55.6 | > 2.02 | > 3.51 | > 37 | 18.2 | 9.88 | 23.1 | > 1.1 |  |  |  |  |  |
| O=c1c2ccc(OCc3cccc(OC(F)(F)F)c3)cc2[nH]c2ccc(Cl)c(F)c12 | 0.181 | > 1 | > 20 | 21.8 | 0.06 | 0.00029 | 0.24 | > 200 | > 6.13 | > 83.3 | > 333 | 1.94 | 3.26 | 0.0004 | > 10.3 |  |  |  |  |  |
| O=c1c2ccccc2[nH]c2cc(Oc3ccc(OC(F)(F)F)cc3)ccc12 | 0.0033 |  | 3.16 | 11.5 | 0.54 | 0.019 | 1.57 | > 200 | 1.72 | 2.01 | 5.85 | 3.02 | 1.84 | 0.03 | 1.05 |  |  |  |  |  |
| O=c1c2c(F)cc(Cl)cc2[nH]c2cccc(Oc3ccc(OC(F)(F)F)cc3)c12 | > 2.5 | > 1 | > 20 | 45.4 | 7.37 | 87.8 | > 20 | 189 | > 1.2 |  | > 2.71 | > 20 | 16.6 | 188 |  |  |  |  |  |  |
| O=c1c2ccc(Oc3ccccc3OC(F)(F)F)cc2[nH]c2cc(Cl)cc(F)c12 | 0.0288 |  | 9.21 | 72.3 | 0.08 | 0.005 | 1.37 | > 200 | 2.19 | 6.72 | 115 | 4.56 | 4.21 | 0.005 | 2.02 |  |  |  |  |  |
| CO[C@@H]1[C@@H](OC)[C@H](C)[C@@](O)(CC(=O)O)O[C@H]1[C@H](C)[C@H]1O[C@@]2(CC[C@@](C)([C@H]3CC[C@@](C)([C@@H]4O[C@@H]([C@H]5O[C@](C)(O)[C@H](C)C[C@@H]5C)C[C@@H]4O[C@@H]4C[C@H](OC)[C@@H](OC)[C@H](C)O4)O3)O2)C[C@H](O)[C@H]1C [MADURAMICIN ACID] |  |  | 2.36 |  | 0.03 |  | 0.01 |  | 59 | 236 | 78.7 | 0.03 | 0.04 |  | 78.7 |  |  |  |  |  |
| O=c1c2ccc(Oc3ccc(OC(F)(F)F)cc3)cc2[nH]c2cc(Cl)c(F)cc12 | 1.52 | > 1 | > 20 | 177 | 0.27 | 14.4 | 1.29 | > 200 |  | > 15.5 | > 74.1 | > 20 | > 20 | 11.1 |  |  |  |  |  |  |
| O=c1c2ccc(Oc3ccc(OC(F)(F)F)cc3)cc2[nH]c2ccc(Cl)c(F)c12 | 0.277 | > 1 | 4.58 | < 3.125 | 0.05 | 0.191 | 0.4 | > 200 | 2.17 | 11.4 | 91.6 | 4.12 | 2.11 | 0.2 | 1.11 |  |  |  |  |  |
| O=c1c2ccc(OC3CCNCC3)cc2[nH]c2cc(Cl)cc(F)c12 | > 2.5 |  |  |  |  | 662 |  | 38.2 |  |  |  |  |  | 121 |  |  |  |  |  |  |
| CC(C)(C)OC(=O)N1CCC(Oc2ccc3c(=O)c4c(Cl)cc(F)cc4[nH]c3c2)CC1 | > 2.5 | > 1 | 4.73 | < 3.125 | 0.15 | 36.7 | 1.37 | 90.2 | 1.2 | 3.45 | 31.5 | 4.44 | 3.94 | 45.7 | 1.06 |  |  |  |  |  |
| CN(C)CCOc1ccc2c(=O)c3c([nH]c2c1)CCCC3 | > 2.5 |  | > 20 | > 500 | > 20 | > 2500 | > 20 |  |  |  |  | > 20 | > 20 | > 2500 |  | Non-toxic | Non-toxic | Non-toxic | Non-toxic | Non-toxic |
| COc1ccc(Oc2ccc3c(=O)c4c(F)cc(Cl)cc4[nH]c3c2)cc1 | 0.0182 | > 1 | 10.8 | < 3.125 | 0.49 | 5.9e-05 | 4.49 | > 200 | 11.5 | 2.4 | 22 | 6.02 | 0.94 | 2.9e-05 | 1.79 |  |  |  |  |  |
| CCCN(CCC)CCNc1ccc2c(=O)c3c([nH]c2c1)CCCC3 | > 2.5 |  | > 20 | > 500 | > 20 | > 2500 | > 20 |  |  |  |  | > 20 | > 20 | > 2500 |  | Non-toxic | Non-toxic | Non-toxic | Non-toxic | Non-toxic |
| O=c1c2ccc(OCc3cccc(C(F)(F)F)c3)cc2[nH]c2ccc(Cl)c(F)c12 | 0.118 | > 1 | > 20 | 15.6 | 0.08 | 0.0003 | 0.4 | > 200 | > 13.1 | > 50 | > 250 | 2.19 | 1.53 | 0.0004 | > 9.13 |  |  |  |  |  |
| O=c1c2cccc(Oc3ccc(OC(F)(F)F)cc3)c2[nH]c2cc(Cl)cc(F)c12 | > 2.5 | > 1 | > 20 | 25.5 | 3.33 | 383 | 13.6 | 92.9 |  | > 1.47 | > 6.01 | > 20 | > 20 | 188 |  |  |  |  |  |  |
